Measured values from US20090074802A1, “IMMUNOMODULATING OLIGOPEPTIDES” (priority 2006, published 2009).

Tested on: Balb/c mice immunized with KLH
Experiment: Humoral immune response to T-cell dependent antigen (KLH) in mice; isotype-specific anti-KLH ELISA of serum
Format: in vivo, mouse
Details: day 28 after a single injection; 20 μg peptide i.p.; KLH 20 μg s.c. with complete Freund adjuvant
Method: To investigate the effect of B134, a representative of the XPY family, inbred SPF mice (Balb/cAwNCrl, 7 to 8 week old, Charles River Laboratories GmbH, Germany) were immunized with KLH, a T-cell dependent antigen. 3 mice per group were injected subcutaneously in the presence of complete Freund adjuvant (50/50 v/v). The mix of antigen (20 μg in 100 μl) with adjuvant (Sigma, #F-5881) was emulsified and injected in the neck region. At the same day 20 μg of immunomodulator B134 or B211 were injected in 200 μl of PBS intraperitoneally. Samples of blood (50-70 μl) were collected from mice on day 7, 14, 21, and 28 from the leg vein. Serum was prepared by clotting the blood for 2 hours at 37° C., followed by 18 hours at 8° C., and centrifugation at 10,000 rpm in an Eppendorf-like centrifuge. Sera were stored diluted with antibody stabilizer (SkyTec ABB500) at 4° C., and analyzed in ELISA simultaneously. For the latter assay, the 96 wells ELISA plates (Greiner, #655061) were coated with KLH (soluble, Sigma H7017) in phosphate buffered solution (PBS), 0.2 μg/well overnight at 4° C. The diluted sera were incubated with antigen ([…]) for 1 hour at room temperature, followed by a wash with PBS/0.1% Tween-20. The binding of mouse antibodies to KLH was detected using isotype specific anti-mouse immunoglobulins, conjugated with HRP (Southern Biotechnology Ltd., anti-mouse IgM #1021-05, anti-mouse IgG1 #1070-05, anti-mouse IgG2a # 1080-05, anti-mouse IgG2b #1090-05) according to the manufacturer's protocol. TMB was used as a substrate. The results were analyzed on Bio-Rad Microplate Reader Model 550, the optical density was measured at 595 nm.
Results shown in FIG. 1 represent titration slope of the serum from experimental mice. The dilutions of sera used are from 1/300 to 1/20,000 with a step of ½ (indicated on X axis as 1 to 6 respectively). The serum reactivity is presented as O.D. shown by a sample in ELISA. The dots represent the average reactivity of samples from 3 sera (from 3 mice per condition). The variation bar represents the 95% confidence interval.

Row | Substance | titer of IgG2a, times higher than in control mice immunized with antigen alone | titer of IgG2b, times higher than in control mice immunized with antigen alone | titer of IgM, times higher than in control mice immunized with antigen alone (every isotype analyzed) | titre of specific IgG1 in sera, times higher than in control mice immunized with antigen alone
1 | Ile-Pro-Tyr [B134] | approximately 2 times | approximately 2 times | approximately 2 times | approximately 2 times
2 | IEWIPY [B211] | ~4 times | ~4 times | – | approximately 16 times
